Structures can show the parent of a compound that is named as a salt.
Columns and labels:
IκB kinase = molecular target: T1, IκB kinase (Homo sapiens, UniProt O14920+O15111); experiment: IκB kinase filter test; type: biochemical; conditions: kinase purified from HeLa cell extracts; 50 μM ATP; substrate peptide 20 μM
T1 construct: The kinase was purified from HeLa cell extracts; endogenous in cells; host or cells: HeLa cell extracts

[1] = molecular target: T2, cAMP-dependent protein kinase (PKA) (Homo sapiens, UniProt P17612); experiment: PKA kinase test (Upstate Biotechnology kit); type: biochemical; conditions: substance concentration of 100 μM; ATP 50 μM
T2 construct: purchased Upstate Biotechnology
Procedure: (§1) cAMP-dependent protein kinase (PKA), protein kinase C (PKC), and casein kinase II (CK II) were determined using the appropriate test kits of Upstate Biotechnology according to the procedure of the manufacturer at an ATP concentration of 50 μM. Differently, no phosphocellulose filter, but MultiScreen plates (Millipore; phosphocellulose MS-PH, cat. MAPHNOB10) with the corresponding aspiration system were used. The plates or membranes (IκB kinase) were then measured in a Wallac Microβeta scintillation counter. 100 μM of the test substance were employed in each case.
(§2) Each substance was tested in a duplicate determination. The mean value of the blank (without enzyme) is subtracted from the mean values (enzyme with and without substances) and the % inhibition is calculated. IC50 calculations were carried out using the software package GraFit 3.0.

protein kinase C (PKC) = experiment: PKC kinase test (Upstate Biotechnology kit); type: biochemical; conditions: substance concentration of 100 μM; ATP 50 μM
Procedure: as §1, §2

casein kinase II (CK II) = molecular target: T3, casein kinase II (CK II) (Homo sapiens, UniProt P68400); experiment: CK II kinase test (Upstate Biotechnology kit); type: biochemical; conditions: substance concentration of 100 μM; ATP 50 μM
T3 construct: purchased Upstate Biotechnology
T3 sequence (P68400 whole entry): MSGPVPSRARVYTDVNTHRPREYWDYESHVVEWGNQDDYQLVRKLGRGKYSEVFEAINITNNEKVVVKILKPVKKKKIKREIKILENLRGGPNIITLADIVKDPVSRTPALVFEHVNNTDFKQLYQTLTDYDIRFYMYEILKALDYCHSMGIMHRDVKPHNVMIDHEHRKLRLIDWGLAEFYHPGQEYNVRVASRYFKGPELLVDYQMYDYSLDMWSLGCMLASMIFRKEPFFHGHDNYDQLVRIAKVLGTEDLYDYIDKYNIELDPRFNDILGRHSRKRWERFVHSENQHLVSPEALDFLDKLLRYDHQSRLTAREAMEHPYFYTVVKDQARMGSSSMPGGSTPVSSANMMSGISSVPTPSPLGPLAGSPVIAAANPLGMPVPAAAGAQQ
T3 sequence (P67870 whole entry partner): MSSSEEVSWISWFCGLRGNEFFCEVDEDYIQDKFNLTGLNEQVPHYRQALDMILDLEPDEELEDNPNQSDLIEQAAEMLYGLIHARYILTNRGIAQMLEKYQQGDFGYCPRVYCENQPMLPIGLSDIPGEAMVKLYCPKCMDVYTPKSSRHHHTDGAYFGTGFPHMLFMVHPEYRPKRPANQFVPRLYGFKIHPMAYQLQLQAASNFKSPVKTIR
Procedure: as §1, §2

T1 sequence (O14920 whole entry): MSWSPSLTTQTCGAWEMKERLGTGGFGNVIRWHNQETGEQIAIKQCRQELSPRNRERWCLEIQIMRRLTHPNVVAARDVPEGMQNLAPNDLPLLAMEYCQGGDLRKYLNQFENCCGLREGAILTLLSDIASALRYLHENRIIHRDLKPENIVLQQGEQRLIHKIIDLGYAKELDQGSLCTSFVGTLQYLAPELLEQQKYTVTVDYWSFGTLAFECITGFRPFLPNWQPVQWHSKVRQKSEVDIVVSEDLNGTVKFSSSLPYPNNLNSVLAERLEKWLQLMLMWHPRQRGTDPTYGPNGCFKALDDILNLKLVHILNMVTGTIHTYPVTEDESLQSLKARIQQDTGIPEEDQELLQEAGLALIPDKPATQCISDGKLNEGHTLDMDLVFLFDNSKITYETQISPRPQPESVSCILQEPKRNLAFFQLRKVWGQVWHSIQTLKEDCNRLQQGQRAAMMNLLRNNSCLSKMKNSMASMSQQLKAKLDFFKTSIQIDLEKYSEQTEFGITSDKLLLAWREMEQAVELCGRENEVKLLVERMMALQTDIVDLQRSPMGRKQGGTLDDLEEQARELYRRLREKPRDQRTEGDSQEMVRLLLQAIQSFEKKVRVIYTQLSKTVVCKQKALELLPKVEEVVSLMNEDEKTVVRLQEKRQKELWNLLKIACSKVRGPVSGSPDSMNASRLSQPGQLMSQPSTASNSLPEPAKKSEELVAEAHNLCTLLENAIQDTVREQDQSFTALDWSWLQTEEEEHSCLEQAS
T1 sequence (O15111 whole entry): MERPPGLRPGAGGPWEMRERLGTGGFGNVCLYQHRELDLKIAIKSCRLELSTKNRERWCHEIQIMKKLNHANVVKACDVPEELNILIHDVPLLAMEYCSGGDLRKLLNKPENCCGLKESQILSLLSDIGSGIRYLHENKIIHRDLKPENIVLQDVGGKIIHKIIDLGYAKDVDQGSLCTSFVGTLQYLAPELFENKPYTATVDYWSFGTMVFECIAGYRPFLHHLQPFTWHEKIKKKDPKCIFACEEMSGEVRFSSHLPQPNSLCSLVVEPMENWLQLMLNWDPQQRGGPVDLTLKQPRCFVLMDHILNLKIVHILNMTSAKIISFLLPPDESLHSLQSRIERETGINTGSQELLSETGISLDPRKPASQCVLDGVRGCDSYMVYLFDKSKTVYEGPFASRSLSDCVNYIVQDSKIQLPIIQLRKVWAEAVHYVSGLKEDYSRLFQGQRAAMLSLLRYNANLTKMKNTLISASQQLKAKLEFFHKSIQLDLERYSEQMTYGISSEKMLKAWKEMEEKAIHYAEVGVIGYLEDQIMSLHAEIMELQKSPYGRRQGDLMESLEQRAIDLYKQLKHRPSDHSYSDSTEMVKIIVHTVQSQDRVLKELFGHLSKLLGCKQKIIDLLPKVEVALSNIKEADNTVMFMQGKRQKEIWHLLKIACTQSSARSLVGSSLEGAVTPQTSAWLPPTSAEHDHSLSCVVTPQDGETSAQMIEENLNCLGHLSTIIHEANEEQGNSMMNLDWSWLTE
T1 sequence (Q9Y6K9 whole entry partner): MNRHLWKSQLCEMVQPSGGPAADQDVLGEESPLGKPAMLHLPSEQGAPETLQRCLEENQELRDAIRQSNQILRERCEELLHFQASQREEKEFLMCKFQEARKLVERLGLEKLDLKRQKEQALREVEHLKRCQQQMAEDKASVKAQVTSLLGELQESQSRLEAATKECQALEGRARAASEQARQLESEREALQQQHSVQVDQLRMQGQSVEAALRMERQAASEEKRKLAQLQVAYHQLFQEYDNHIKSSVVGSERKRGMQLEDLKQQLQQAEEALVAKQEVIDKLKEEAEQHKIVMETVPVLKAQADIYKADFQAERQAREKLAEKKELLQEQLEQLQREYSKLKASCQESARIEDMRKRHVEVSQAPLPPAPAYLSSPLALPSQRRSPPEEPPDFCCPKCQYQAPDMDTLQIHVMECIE

SMILES | melting point | IC50 (IκB kinase) [µM] | inhibition at 100 µM [1] [%] | PKC % inhibition (protein kinase C (PKC)) [%] | inhibition at 100 µM (casein kinase II (CK II)) [%]
CCN(C[C@H](NC(=O)c1ccc2[nH]c(-c3ccncc3)nc2c1)C(=O)O)c1ccccc1 (as salt: trifluoroacetate) [Example 195, 3-Phenylaminoethyl-2-[(2-pyridin-4-yl-1H-benzimidazole-5-carbonyl)-amino]propionic acid trifluoroacetate] | ~ 258 °C (dec.) | – | – | – | –
O=C(N[C@@H](Cc1ccc(F)cc1F)C(=O)O)c1ccc2nc(-c3ccncc3)[nH]c2c1 [Example 5] | – | 25 | 0 | 16 | 19
O=C(N[C@H](Cc1ccc(Cl)cc1)C(=O)O)c1ccc2nc(-c3ccncc3)[nH]c2c1 [Example 6] | – | 72 | 0 | 46 | 14
O=C(N[C@@H](Cc1ccc(F)cc1)C(=O)O)c1ccc2nc(-c3ccncc3)[nH]c2c1 [Example 7] | – | 22 | 0 | 15 | 10
NC(=O)[C@H](Cc1cccc(C(F)(F)F)c1)NC(=O)c1ccc2nc(-c3ccncc3)[nH]c2c1 [Example 8] | – | 4 | 0 | 9 | 7
NC(=O)[C@H](Cc1cccnc1)NC(=O)c1ccc2nc(-c3ccncc3)[nH]c2c1 [Example 12] | – | 42 | 0 | 16 | 0
NC(=O)[C@H](Cc1ccc(C(=O)O)cc1)NC(=O)c1ccc2nc(-c3ccncc3)[nH]c2c1 [Example 14] | – | 7 | 0 | 0 | 0
N#Cc1ccc(C[C@H](NC(=O)c2ccc3nc(-c4ccncc4)[nH]c3c2)C(N)=O)cc1 [Example 16] | – | 9 | 0 | 11 | 4
NC(=O)[C@H](Cc1cc(Br)c(O)c(Br)c1)NC(=O)c1ccc2nc(-c3ccncc3)[nH]c2c1 [Example 20] | – | 34 | 26 | 31 | 60
NC(=O)[C@H](Cc1cccs1)NC(=O)c1cccc2nc(-c3ccncc3)[nH]c12 [Example 34] | – | 16 | – | – | –
CSCC[C@H](NC(=O)c1ccc2[nH]c(-c3ccncc3)nc2c1)C(N)=O [Example 107] | – | 1 | 0 | 13 | 92
O=C(N[C@@H](CCc1ccccc1)c1nnc(NS(=O)(=O)c2ccccc2)o1)c1ccc2[nH]c(-c3ccncc3)nc2c1 [Example 191] | 220 °C (dec.) | 0.12 | – | – | –
CNC(=O)Nc1nnc([C@H](CCc2ccccc2)NC(=O)c2ccc3[nH]c(-c4ccncc4)nc3c2)o1 [Example 192, 2-pyridin-4-yl-1H-benzimidazole-5-carboxylic acid {1-[5-(3-methylureido)-[1,3,4]oxadiazol-2-yl]-3-phenylpropyl}amide] | – | 0.36 | – | – | –

The remaining lines, values ahead:

melting point | IC50 (IκB kinase) [µM] | inhibition at 100 µM [1] [%] | PKC % inhibition (protein kinase C (PKC)) [%] | inhibition at 100 µM (casein kinase II (CK II)) [%] | SMILES
– | 7 | 0 | 16 | 0 | NC(=O)[C@H](Cc1cccs1)NC(=O)c1ccc2nc(-c3ccncc3)[nH]c2c1 [Example 11]
– | 1 | 36 | 63 | 70 | NC(=O)[C@H](Cc1ccc2ccccc2n1)NC(=O)c1ccc2nc(-c3ccncc3)[nH]c2c1 [Example 19]
– | 36 | – | – | – | NC(=O)[C@H](CC1CC1)NC(=O)c1cccc2nc(-c3ccncc3)[nH]c12 [Example 36]
– | 25 | 24 | 7 | 17 | CC(C)(C)c1ccccc1SC[C@H](NC(=O)c1ccc2[nH]c(-c3ccncc3)nc2c1)C(=O)O [Example 112]
160 °C (dec.) | 0.43 | – | – | – | Nc1nnc([C@H](CCc2ccccc2)NC(=O)c2ccc3[nH]c(-c4ccncc4)nc3c2)o1 [Example 179, 2-pyridin4-yl-1H-benzimidazole-5-carboxylic acid [1-(5-amino-[1,3,4]oxadiazol-2-yl)-3-phenylpropyl]amide]
103 °C (dec.) | 0.62 | – | – | – | O=C(N[C@@H](CCc1ccccc1)c1nnco1)c1ccc2[nH]c(-c3ccncc3)nc2c1 [Example 180, 2-pyridin-4-yl-1H-benzimidazole-5-carboxylic acid (1-[1,3,4]oxadiazol-2-yl-3-phenylpropyl)amide]

From US6358978B1, “Substituted benzimidazoles” (Aventis Pharma Deutschland GmbH, priority 1999, dated 2002)
